Experimental data from patent publication US20200085789A1, “USE OF A PROTEASOME INHIBITOR FOR THE TREATMENT OF CENTRAL NERVOUS SYSTEM (CNS) CANCERS” (Celgene International II Sàrl, priority 2017, published 2020).

How the values were obtained:
[1] = system: proteasome (CT-L, T-L and C-L activity); experiment: Blood proteasome inhibition (CT-L, T-L, C-L activity in packed whole blood and PBMC lysates); format: in vivo, human; conditions: for % C-L inhibition / % CT-L inhibition / % T-L inhibition: PWB, post-Marizomib infusion (peak effect)
Text: The drugs were infused on 28-Day Cycles.
Change in proteasome activities in packed whole blood (PWB) lysates and peripheral blood mononuclear cell (PBMC) lysates, comparing pre-drug and post drug levels on Days 1, 8, and 15 of Cycle 1; Days 1 and 15 of each Cycle thereafter; and at the End-of Treatment Visit.
The laboratory correlates include assessment of the percentage inhibition of proteasome function (evaluated by measurement of CT-L, T-L and C-L activity in blood isolates such as whole blood and PBMC lysates.
PD analysis will include change in proteasome activities (whole blood lysates and PBMC lysates) by comparing pre-drug and post drug levels on Days 1, 8, and 15 (i.e., for each dose) of Cycle 1 and Days 1 and 15 (i.e., for the first and last doses) of each cycle thereafter.

[2] = system: WHO Grade IV malignant glioma; experiment: Tumor response by RANO criteria, MRZ ± BEV in recurrent grade IV malignant glioma patients; format: in vivo, human; conditions: for Best Response CR (0), patients / Best Response PD (19), patients / Best Response PR (1), patients / Best Response SD (8), patients: Monotherapy ITT; for SPD: Monotherapy
Procedure: Tumor response was measured every other cycle by RANO criteria.
The drugs were infused on 28-Day Cycles. Tumor response is assessed every other cycle by RANO criteria.
Assessment will include MRI scans at the end of every even numbered cycle (±7 days) using RANO 2010 criteria for assessment.

[3] = Phase 2 monotherapy, of 30 patients

C[C@@]12OC(=O)[C@]1([C@@H](O)[C@@H]1C=CCCC1)NC(=O)[C@@H]2CCCl [MRZ, marizomib]
% C-L inhibition ([1]; 0.7 mg/m^2): 50.4 ± 9.1 (3) %
% CT-L inhibition ([1]; 0.7 mg/m^2): 100 ± 0 (3) %
% T-L inhibition ([1]; 0.7 mg/m^2): 77.3 ± 10.5 (3) %
% C-L inhibition ([1]; 0.8 mg/m^2): 51.9 ± 8.3 (3) %
% CT-L inhibition ([1]; 0.8 mg/m^2): 100 ± 0 (3) %
% T-L inhibition ([1]; 0.8 mg/m^2): 69.3 ± 7.2 (3) %
Proteasome inhibition on chymotrypsin-like (CT-L) domains ([1]; cohorts 1 and 2): maximal
trypsin-like (T-L) and caspase-like (C-L) activity ([1]; cohorts 1 vs 2): Dose-dependent inhibition
Best Response CR (0), patients ([2]; Methylated N = 7): 0
Best Response PD (19), patients ([2]; Methylated N = 7): 4
Best Response PR (1), patients ([2]; Methylated N = 7): 0
Best Response SD (8), patients ([2]; Methylated N = 7): 3
Best Response CR (0), patients ([2]; Unknown N = 5): 0
Best Response PD (19), patients ([2]; Unknown N = 5): 3
Best Response PR (1), patients ([2]; Unknown N = 5): 0
Best Response SD (8), patients ([2]; Unknown N = 5): 1
Best Response CR (0), patients ([2]; Unmethylated N = 18): 0
Best Response PD (19), patients ([2]; Unmethylated N = 18): 12
Best Response PR (1), patients ([2]; Unmethylated N = 18): 1
Best Response SD (8), patients ([2]; Unmethylated N = 18): 4
SPD ([2]; Pt 0511, Screening SPD 703.47): 231.3
SPD ([2]; Pt 0515, Screening SPD 199.6): 259.5
SPD ([2]; Pt 0521, Screening SPD 836.44): 832.82
overall response rate ([2]; Phase 2 monotherapy 0.8 mg/m^2, 30 patients): 3%
partial response, patients [2, 3]: 1
progressive disease, patients [2, 3]: 19
disease course in most patients ([2]; marizomib alone): rapid progression
